Source: ChEMBL document CHEMBL1142989, “Synthesis and anti-cancer activity of C-ring-functionalized prodigiosin analogues” (2007)

Assay: Growth inhibition in human NCI60 cells
Format: functional
Settings: for TGI: read-out: Log TGI (converted)

SMILES	GI50	LC50	TGI
COC(=O)CCCCC(=O)C1=C(C)/C(=C/c2[nH]c(-c3ccc[nH]3)cc2OC)N=C1C	0.646 µM	6.46 µM	2.24 µM
CCc1c(-c2ccc[nH]2)[nH]c(/C=C2\N=C(C)C(C(=O)CCCCC(=O)OC)=C2C)c1C	9.33 µM	83.2 µM	33.9 µM
COc1cc(-c2ccc[nH]2)[nH]c1/C=C1\N=C(C)C(C(C)=O)=C1C [PRODIGIOSIN5]	0.708 µM	89.1 µM	40.7 µM
CCCCCC1=C/C(=C/c2[nH]c(-c3ccc[nH]3)cc2OC)N=C1C [PRODIGIOSIN CHLORIDE]	0.0141 µM		2.09 µM
COC(=O)CCCCCCCCC(=O)C1=C(C)/C(=C/c2[nH]c(-c3ccc[nH]3)cc2OC)N=C1C	16.2 µM	95.5 µM	67.6 µM
COC(=O)CCC(=O)C1=C(C)/C(=C/c2[nH]c(-c3ccc[nH]3)cc2OC)N=C1C	0.794 µM	12.3 µM	3.24 µM
CCOC(=O)C1=C(C)/C(=C/c2[nH]c(-c3ccc[nH]3)cc2OC)N=C1C [PRODIGIOSIN 4]	0.0468 µM	12.3 µM	1.1 µM
